Measured values from BindingDB's records for doi:10.1016/s0960-894x(99)00335-2 (Merck Research Laboratories, 1999).

Assay: Concentration required for inhibition of serine/threonine protein phosphatase calcineurin (CAN)

Structure (SMILES): CC[C@@H]1/C=C(\C)C[C@H](C)C[C@H](OC)[C@H]2O[C@@](O)(C(=O)C(=O)N3CCCC[C@H]3C(=O)O[C@H](/C(C)=C/[C@@H]3CC[C@@H](OCCc4ccccc4)[C@H](OC)C3)[C@H](C)[C@@H](O)CC1=O)[C@H](C)C[C@@H]2OC [C32-O-Phenalkyl ether derivative of Ascomycin]
- IC50: 7.2 nM

Structure (SMILES): CC[C@@H]1/C=C(\C)C[C@H](C)C[C@H](OC)[C@H]2O[C@@](O)(C(=O)C(=O)N3CCCC[C@H]3C(=O)O[C@H](/C(C)=C/[C@@H]3CC[C@@H](OCCCc4ccccc4)[C@H](OC)C3)[C@H](C)[C@@H](O)CC1=O)[C@H](C)C[C@@H]2OC [C32-O-Phenalkyl ether derivative of Ascomycin]
- IC50: 14 nM
